# Data taken from patent publication US9205135B2, “Podocyte pH modulation and uses thereof” (University of Miami, priority 2009, dated 2015).
# Entries after “also recorded” stand apart in the source; their conditions may differ. Residues, ends and D or L forms follow the SMILES beside them. *: point of attachment. Cbz = O=C(OCc1ccccc1)*; CH2F = FC*
# Assays:
# [1] = system: cathepsin L; test: Cathepsin L activity in cultured podocytes, CV-(FR)2 substrate; type: cell-based, mouse
# Method: Subcellular sites of cathepsin L and cathepsin B activity in glomerular extracts were visualized by a fluorogenic substrate, CV-(FR)2, which emits light upon cleavage by cathepsin L or cathepsin B (Biomol).
# Measurement of cathepsin L activity: Cathepsin L activities in cultured podocytes and in glomeruli was measured using CV-CatL detection kit (Biomol, Plymouth Meeting, Pa.) as described in the manufacturer's instructions. The fluorophore cresyl violet [CV-(FR)2] substrate becomes florescent after Cat L cleavage of the attached Phe-Arg groups. This substrate easily penetrates the cell membrane and the membranes of the internal cellular organelles, enabling the detection of cathepsin activity within living podocytes.
# [2] = system: podocytes; test: Glutamine uptake rate in cultured podocytes; type: cell-based, mouse; details: injury stimulus
# Source text: A podocyte metabolic model was constructed based on available databases as well as mRNA and protein expression data extracted from podocytes. The following podocyte culture models were employed: wildtype (control), LPS and PAN stimulated podocytes (inducible injury models) as well as podocytes with genetic deletion of the alpha3 gene (genetic disease model). All injury cultures increase the uptake of glutamine as well as gluconeogenic aminoacids. In addition, there is increasing ammonia production in diseased podocytes. These changes were predicted by the podocyte metabolic model and confirmed by measuring directly amino acids and ammonia (FIGS. 1A-1D).
# Metabolic Flux Analysis emphasizes glutamine utilization pathways for podocyte function: We utilized cultured normal podocytes (control) (15) and three in vitro models for podocyte damage: i) podocytes with α3 integrin deletion (genetic model) (16); ii) podocytes treated with lipopolysaccharides (LPS, immunological model) (17); and iii) podocytes treated with puromycin aminonucleoside (PAN, toxic model) (18). […] Using the podocyte MFA network, we were able to extract podocyte aminoacid and glucose utilization (FIG. 10b-d) that was also independently measured in direct validation studies (data not shown). All analyzed modeling and experimentation data supported the notion that the aminoacid metabolism of podocytes is changed in disease. […]
# [3] = system: HEK293; test: Glutamine uptake rate in HEK293 cells; type: cell-based
# Method: (§1) All together, these experiments discovered a uniform metabolic response for podocytes that are injured.
# (§2) Cells, antibodies, and standard techniques: Mouse podocyte cell lines (15) and HEK 293 cells (6) were grown as described previously. NIH 3T3 cells were cultured in Dulbecco's modified Eagle's minimal essential medium (Invitrogen, Carlsbad, Calif.) supplemented with 10% fetal calf serum (Invitrogen) and incubated in a humidified atmosphere of 95% air and 5% CO2 at 37° C. Antibody used for immunostaining are Alexa Fluor 594 phalloidin (Molecular Probes, Eugene, Oreg.). Subcellular fractionation was performed as described previously (6).
# [4] = system: NIH 3T3; test: Glutamine uptake rate in NIH 3T3 cells; type: cell-based
# Method: as §1, §2
# [5] = system: podocytes; test: Intracellular pH of cultured podocytes by CMFDA fluorescence; type: cell-based, mouse; details: glutamine present vs absent in culture medium; normal and α3 integrin deficient podocytes
# Method: Podocyte pH was assessed with CMFDA—an indicator for pH. Higher green signal is consistent with a more alkaline cell. The presence of high glutamine levels in cell culture media alkalinizes the normal podocytes as well as podocytes that lack integrin α3β1 (genetic model cells for podocyte disease) (FIG. 3A). Both, LPS and PAN treatment stimulate cathepsin L activity in podocytes. Cathepsin L activity is lower in the presence of high glutamine in the cell culture media that in turn leads to a more alkaline podocyte cytosol (FIGS. 3B, 3C).
# Modification of intracellular pH by glutamine: One of the key feature in podocyte injury that can be found in all three employed cellular podocyte models is the induction of cytosolic cathepsin L that in turn cleaves critical regulators of the podocyte microfilament system resulting in a reorganization of the podocyte actin cytoskeleton and proteinuria (6). In contrast to lysosomal cathepsin L, cytosolic cathepsin L is operating under non-acidic conditions. […] We used a fluorescent dye CMFDA (5-chloromethylfluorescein diacetate) that captures changes in intracellular pH by alterations in fluorescence (25). The more alkaline the pH, the more green fluorescence is detected (FIGS. 11a-c). […] Using CMFDA, the pH in control cells was determined at 7.1 and at 7.3 in α3 integrin-KO podocytes. […]
# [6] = system: C57BL/6 mice; test: LPS-induced proteinuria model in mice; type: in vivo, mouse; details: for glomerular pH (CMFDA fluorescence of isolated glomeruli): glutamine 0.75 mg/g
# Method: Treatment of mice with glutamine increases podocyte pH and protects from LPS-induced proteinuria: In order to translate our in vitro findings into a kidney disease relevant model, we next utilized the LPS model in mice known to cause podocyte foot process effacement and proteinuria driven by induction of cytosolic cathepsin L (6). To this end, mice were either injected with only LPS or treated with high dose (0.75 mg/g) glutamine injection 10 min after LPS administration. We analyzed the relative alkalinity of glomeruli using isolated glomeruli that were incubated with green CMFDA. […] We also tested renal function and measured proteinuria in these mice. […] These effects were also visible on an ultrastructural level.
# (§3) Immunohistochemistry and immunoelectron microscopy: For immunofluorescent labeling, sections were washed once with PBS and incubated with blocking solution (2% FCS, 2% BSA, 0.2% fish gelatin) for 30 min at room temperature before further incubation with the primary antibody for 1 h at room temperature. Antigen-antibody complexes were visualized with secondary antibodies conjugated with fluorochromes. Specimens were analyzed using a Zeiss confocal microscope (Germany). Ultrathin sections of the kidneys were examined with a Philips CM10 electron microscope (The Netherlands). The number of podocytic FPs was counted in 10 different areas of representative glomeruli. In each area, the number of FPs was calculated within a distance of 1 μm on the GBM (34).
# Animals and treatments: All animal studies were performed under protocols approved by the University of Miami animal care and use committee. C57BL/6 mice were obtained from The Jackson Laboratory. The mouse model LPS-induced proteinuria was utilized as previously described (16). Glutamine (Invitrogen) is injected i.p. (0.75 mg/g mouse) 10 min after LPS ([…]) (Sigma Aldrich, St. Louis, Mo.) injection.
# [7] = system: wt podocytes; test: F-actin cytoskeleton staining of cultured podocytes; type: cell-based, mouse; details: wt podocytes after LPS treatment, glutamine in medium vs absent
# Method: The absence of cathepsin L protected from LPS-mediated loss of F-actin.
# as §2, §3
# [8] = system: cathepsin B; details: cited from earlier work
compound,measurement,setting,value
"CN(C)c1ncnc2c1ncn2[C@@H]1O[C@H](CO)[C@@H](N)[C@H]1O [PAN, puromycin aminonucleoside]",cathepsin L activity in podocytes,[1]; effect of the injury stimulus itself,stimulate
same,glutamine uptake rate,[2],stimulated
same,glutamine uptake rate,[3],increasing glutamine uptake rate
same,glutamine uptake rate,[4],increasing glutamine uptake rate
NC(=O)CC[C@H](N)C(=O)O [glutamine],podocyte cytosolic pH (CMFDA fluorescence),[5],alkalinizes; also recorded: more alkaline cytosolic pH
same,cathepsin L activity in podocytes,"[1]; high glutamine in cell culture media, LPS or PAN treated podocytes",lower
same,podocyte foot process effacement (electron microscopy),[6]; LPS-treated mice with glutamine vs LPS only,protects; also recorded: decreased foot process effacement
same,glomerular pH (CMFDA fluorescence of isolated glomeruli),[6]; LPS-treated mice,increase in CMFDA fluorescence; also recorded: glomerular alkalinization; also recorded: increased alkalinity
same,proteinuria (urinary protein/creatinine ratio),"[6]; LPS-treated mice, glutamine 0.75 mg/g i.p., 24 h",ameliorates; also recorded: significant lower
same,glomerular pH (CMFDA fluorescence of isolated glomeruli),"[6]; LPS-treated mice, listed as Glutamine",increase in CMFDA fluorescence
same,F-actin presence,[7],improved F-actin presence
"O=C(NC(Cc1ccccc1)C(=O)NC(Cc1ccccc1)C(=O)CF)OCc1ccccc1 (stereo not drawn) [Z-FF-FMK, Z-Phe-Phe-FMK] (Cbz-Phe-Phe-CH2F; configuration not given here)",inhibition of cathepsin B,[8],does not inhibit
